Experimental findings from US20140370084A1, “ESTRADIOL FORMULATIONS AND THERAPIES” (TherapeuticsMD, Inc., priority 2013, published 2014) are described below.

The nature of this data set: Particle size analysis of micronized progesterone API (Beckman Device, ULM). To be noted: sample API, Fraunhofer optical model. Type of data set: physicochemical. The text has this: Particle size may be determined in any suitable manner. For example, a Beckman Coulter LS 13 320 Laser Diffraction Particle Size Analyzer (the “Beckman Device”) may be used to determine particle size. As described above, particle size may be represented by various metrics, for example, through an X50 particle size, and/or X90 particle size, or similar descriptions of particle size.
The Beckman Device may be used with various modules for introducing a sample for analysis. The Beckman Device may be used with the LS 13 320 Universal Liquid Module (“ULM”). The ULM is capable of suspending samples in the size range of 0.017 μm to 2000 μm. The ULM is a liquid based module that allows for delivery of the sample to the sensing zone. The ULM recirculates the sample through the Beckman Device. The ULM comprises two hoses, one for fluid delivery and another for waste. The total volume used may be 125 mL or less. A sample mass of from about 1 mg to about 10 g may be used. The ULM may interact with the Beckman Device via pins that fit into slots on the ULM. The ULM may use a variety of suspension fluids, for example, water, butonol, ethanol, chloroform, heptanes, toluene, propanol, COULTER Type 1B Dispersant (“Coulter 1B”), and a variety of other suspension fluids. Surfactants may also be used, though pump speed should be adjusted to prevent excessive bubbling. […]

Turning to `CC(=O)[C@H]1CC[C@H]2[C@@H]3CCC4=CC(=O)CC[C@]4(C)[C@H]3CC[C@]12C` [Progesterone, progesterone], the X25 was found to be 1.590 μm and the X75 is 7.442 μm.
